Results published in article PMC4595804, “A strategy to discover decoy chemokine ligands with an anti-inflammatory activity” (Scientific Reports, 2015).

Experiments:
CXCR4 = CXCR4 (Homo sapiens, UniProt P61073); details: EGFP-CXCR4+ HEK cells, 1 h preincubation
Protocol: The identification of neutraligands relies on the measurement of kinetic-based calcium responses.
Monitoring calcium responses in a time-resolved manner allows the discrimination of compounds binding to the chemokine from those binding to the receptor. This is achieved using a pre-incubation protocol in which the tested compounds are preincubated with the receptor or with the chemokine prior to calcium monitoring. […] These incubation protocols are named Time-Resolved Intracellular Calcium recordings (TRIC-r) allowing the identification of neutraligands versus receptor antagonists.

CCL17 [1] = molecular target: T1, CCL17 (Homo sapiens, UniProt Q92583); test: TRIC-r calcium assay, neutraligand protocol: compound preincubated with CCL17, EGFP-CCR4+Gqi5+ HEK cells; format: cell-based; details: neutraligand protocol, control compound
T1 construct: codes for the mature CCL17 or CCL22 with an N-terminal thioredoxin-hexahistidin (TRX- (His)6) tag; thioredoxin (TRX) (N, cleaved yes); (His)6 (N, cleaved yes); made in house; host or cells: E. coli BL21 (DE3)
T1 sequence (Q92583 24-94): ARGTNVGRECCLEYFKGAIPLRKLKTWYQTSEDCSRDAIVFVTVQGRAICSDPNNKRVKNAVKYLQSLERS
Protocol: EGFP-CCR4^+Gqi5^+HEKcells were loaded with fluorescent Ca^2+-indicator Indo-1 AM (5μM, Interchim) for 45 min at 37 °C. […] Cells (100,000 cells/well, 100μl) were seeded in black clear bottom 96-well plates (Greiner), and centrifuged at 250 × g for 5 min.
(§1) Two plates (96-well plates, Greiner) were prepared for the screen: one containing test compounds alone in order to determine their direct agonistic activity, and another one containing test compounds mixed with CCL17 or CCL22 at room temperature for 1 h (neutraligand protocol). The chemokines and test compounds were prepared at a 3× concentration, while digitonin was prepared at a 4× concentration. The CCR4 antagonist, C-021 served as control in the experiment. In the antagonist protocol, compounds were added to the cell plate (one compound per well) and incubated with cells for 30 min at room temperature, while the agonist (CCL17 or CCL22) was added to the ligand plate only.
Dye loaded cells were placed in the FlexStation 3 (Molecular Devices). […] For the primary screening, the ligands (50μl of chemokine mixed with DMSO or test compounds) were added to the cells at 40 s, followed by digitonin addition (50μl) at 100 s to the cells. Molecules were screened at a final concentration of 2μg/ml with 5 nM CCL17 or CCL22. […] The calcium response values (height of peak response over baseline) were determined. Hits were selected by comparing the response amplitude at the time of the chemokine addition ± test compound. The Z’ factor[29] was calculated according to the following equation: Z’ = 1-(3SD+ + 3SD−)/|Ave+ − Ave−|, where SD+ and Ave+ are respectively the standard deviation and the mean value of the positive controls (chemokine + DMSO), while SD− and Ave− are respectively the standard deviation and the mean value of the negative controls (HEPES-BSA (0.1%) mixed with DMSO, or cells mixed with C-021). Hit molecules were confirmed by performing concentration-response curves and their half maximal inhibitory concentration (IC50) values were calculated using the Kaleidagraph software.

CCR4 [2] = molecular target: T2, CCR4 (Homo sapiens, UniProt P51679); test: TRIC-r calcium assay, antagonist protocol: compound preincubated with CCR4-expressing cells; format: cell-based; details: primary screen
T2 construct: signal peptide fused to EGFP (N); expressed in transfected cells; host or cells: HEK-293
T2 sequence (P51679 1-360): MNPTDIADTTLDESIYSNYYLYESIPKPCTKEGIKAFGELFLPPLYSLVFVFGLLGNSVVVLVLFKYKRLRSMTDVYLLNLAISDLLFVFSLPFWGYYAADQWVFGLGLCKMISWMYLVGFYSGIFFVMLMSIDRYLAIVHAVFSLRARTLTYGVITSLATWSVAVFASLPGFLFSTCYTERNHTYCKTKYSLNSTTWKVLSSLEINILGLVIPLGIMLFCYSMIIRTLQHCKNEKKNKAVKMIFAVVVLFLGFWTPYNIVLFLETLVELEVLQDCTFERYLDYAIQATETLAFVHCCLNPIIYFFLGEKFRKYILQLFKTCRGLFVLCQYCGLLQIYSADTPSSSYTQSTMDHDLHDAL
Protocol: as §1
Dye loaded cells were placed in the FlexStation 3 (Molecular Devices). Calcium mobilization was measured at 401 and 475 nm emission fluorescence after excitation at 355 nm. For the primary screening, the ligands (50μl of chemokine mixed with DMSO or test compounds) were added to the cells at 40 s, followed by digitonin addition (50μl) at 100 s to the cells. […] Raw fluorescence data (at 401 and 475 nm) were exported and the ratio 401/475 was calculated. The calcium response values (height of peak response over baseline) were determined. […] Hit molecules were confirmed by performing concentration-response curves and their half maximal inhibitory concentration (IC50) values were calculated using the Kaleidagraph software.

CCL17 [3] = molecular target: T1, CCL17; test: Tryptophan fluorescence assay on CCL17; format: binding; details: 0–25 μM compound
Protocol: (§2) Fluorescence measurements were performed on a spectrofluorometer (JobinYvon/Spex) in a quartz microcuvette at 20 °C. CCL17 and CCL22 (1.5 μM in HEPES buffer without BSA) were excited at 285 nm and emission spectra were recorded (300–400 nm). […] The fluorescence emission spectra were corrected by subtracting the emission scan of the compounds alone and data analysis was carried out with fluorescence intensities detected at 340 nm.

CCL22 = molecular target: T3, CCL22 (Homo sapiens, UniProt O00626); test: Tryptophan fluorescence assay on CCL22; format: binding; details: 0–25 μM compound
T3 construct: codes for the mature CCL17 or CCL22 with an N-terminal thioredoxin-hexahistidin (TRX- (His)6) tag; thioredoxin (TRX) (N, cleaved yes); (His)6 (N, cleaved yes); made in house; host or cells: E. coli BL21 (DE3)
T3 sequence (O00626 25-93): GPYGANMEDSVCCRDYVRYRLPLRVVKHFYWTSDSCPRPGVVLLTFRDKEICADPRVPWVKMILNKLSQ
Protocol: as §2, with “°C.” for “°C. CCL17 and CCL22 (1.5 μM in HEPES buffer without BSA) were excited at 285 nm and emission spectra were recorded (300–400 nm).”

CCR4+ HUT78 cells = test: HUT78 chemotaxis: compounds alone or preincubated with the cells (antagonist protocol); format: cell-based, human; details: receptor antagonist protocol, 1 μM, 3 nM CCL17 or CCL22
Protocol: Cell migration was carried out in RPMI1640-BSA (0.1%) using Transwell 96-well plates (Corning Costar, 5 μm pore size, polycarbonate membranes). […] Lower wells contained the same medium diluted with DMSO or chemokine (3 nM CCL17 or CCL22).
0.1% BSA using Transwell 96-well plates (Corning Costar, 5µm pore size, polycarbonate […]
the same medium diluted with DMSO or chemokine (3nM CCL17 or CCL22). In neutraligand inhibition studies, prior to their use, CCL17 (a) and CCL22 (b) were pre-incubated with […]
in the lower compartment. For characterization of the antagonist properties, the compounds were pre-incubated with the cells in the upper compartment. C-021 (1µM, stripped bars), the CCR4 receptor antagonist, was used as a control in both incubation protocols. Results are expressed as the percentage of cells that migrated to the lower chamber. Data represent the means±SD. Experiments were performed in triplicate.
(1 picture or pasted object on this page, not shown here)

CCR4 [4] = molecular target: T2, CCR4; test: Dose-response of chemokine-induced calcium responses in EGFP-CCR4+Gqi5+ HEK cells; format: cell-based; details: recombinant chemokine, + Gqi5, 21 °C
Protocol: EGFP-CCR4^+Gqi5^+HEKcells were loaded with fluorescent Ca^2+-indicator Indo-1 AM (5μM, Interchim) for 45 min at 37 °C. The cells were detached in PBS-EDTA (5 mM) for 2 min, suspended in growth medium, pelleted by centrifugation at 320 × g for 5 min, and resuspended in HEPES-BSA buffer (137.5 mM NaCl, 6 mM KCl, 1.25 mM CaCl2, 1.25 mM MgCl2, 0.4 mM NaH2PO4, 5.6 mM glucose, 10 mM HEPES, BSA (0.1%, w/v), pH 7.4). Cells (100,000 cells/well, 100μl) were seeded in black clear bottom 96-well plates (Greiner), and centrifuged at 250 × g for 5 min.
Dye loaded cells were placed in the FlexStation 3 (Molecular Devices). Calcium mobilization was measured at 401 and 475 nm emission fluorescence after excitation at 355 nm. […] Raw fluorescence data (at 401 and 475 nm) were exported and the ratio 401/475 was calculated. The calcium response values (height of peak response over baseline) were determined. […] The Z’ factor[29] was calculated according to the following equation: Z’ = 1-(3SD+ + 3SD−)/|Ave+ − Ave−|, where SD+ and Ave+ are respectively the standard deviation and the mean value of the positive controls (chemokine + DMSO), while SD− and Ave− are respectively the standard deviation and the mean value of the negative controls (HEPES-BSA (0.1%) mixed with DMSO, or cells mixed with C-021). […]

CCR4 [5] = molecular target: T2, CCR4; test: EGFP-CCR4 receptor surface level / endocytosis on EGFP-CCR4+ HEK cells; format: cell-based; details: 100 nM chemokine, 30 min, EGFP-CCR4+ HEK cells
Protocol: CCR4 levels were evaluated by flow cytometry (FACSCalibur, BD biosciences) using cell surface labeling of EGFP with monoclonal mouse anti-GFP (Roche Applied Science; 1:100 dilution) as primary antibody and R-phycoerythrin conjugated AffiniPure F (ab’)2 fragment goat anti-mouse (Immunotech; 1/100) as secondary antibody.

CXCR4, sequence (P61073 whole entry): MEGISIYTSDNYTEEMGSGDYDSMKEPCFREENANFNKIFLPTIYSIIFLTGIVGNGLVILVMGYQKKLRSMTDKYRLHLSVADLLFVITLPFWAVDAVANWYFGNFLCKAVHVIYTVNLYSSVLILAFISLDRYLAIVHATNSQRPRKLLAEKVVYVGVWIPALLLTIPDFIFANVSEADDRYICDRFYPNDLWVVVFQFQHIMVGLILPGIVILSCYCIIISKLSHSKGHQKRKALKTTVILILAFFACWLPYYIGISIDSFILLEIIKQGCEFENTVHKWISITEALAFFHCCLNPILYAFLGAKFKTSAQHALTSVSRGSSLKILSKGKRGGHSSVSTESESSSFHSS

Q: With `c1cc(CN2CCCNCCNCCCNCC2)ccc1CN1CCCNCCNCCCNCC1` [AMD3100] as the molecule, how does the “amplitude of CXCL12 calcium responses, preincubation with the chemokine compared with preincubation with the receptor” value (CXCR4) read?
A: much greater

Q: With `COc1cc2nc(N3CCC(N4CCCCC4)CC3)nc(NC3CCCCCC3)c2cc1OC` [C-021, reference compound] as the molecule, how does the “effect on CCL17 calcium responses after preincubation with the chemokine” value (CCL17 [1]) read?
A: not with the chemokine

Q: And the “effect on the response to CCL17 or CCL22 after preincubation with the receptor-expressing cells” value (CCR4 [2])?
A: abolished responses

Q: And the “change in tryptophan fluorescence of CCL17” value (CCL17 [3])?
A: No significant change

Q: What about the “change in tryptophan fluorescence of CCL22” value (CCL22) of the same molecule?
A: No significant change

Q: What about the “inhibition of CCR4+ HUT78 T cell migration, compound preincubated with the cells” value (CCR4+ HUT78 cells) of the same molecule?
A: 90%

B1: CCL17: recombinant human chemokine (Thymus and Activation-Regulated Chemokine), CCR4 agonist, produced in E. coli (protein)
chain: ARGTNVGRECCLEYFKGAIPLRKLKTWYQTSEDCSRDAIVFVTVQGRAICSDPNNKRVKNAVKYLQSLERS
modifications: left off: thioredoxin (TRX), N-terminal, cleaved | His6, N-terminal, cleaved
Q: Which results are given for B1?
A: EC50 (CCR4 [4]): 3.7 ± 0.4 nM; CCR4 internalization (receptor endocytosis) induced by the chemokine (CCR4 [5]): approximately 43.0 ± 3.0%

B2: CCL22: recombinant human chemokine (Macrophage-Derived Chemokine), CCR4 agonist, produced in E. coli (protein)
chain: GPYGANMEDSVCCRDYVRYRLPLRVVKHFYWTSDSCPRPGVVLLTFRDKEICADPRVPWVKMILNKLSQ
modifications: left off: thioredoxin (TRX), N-terminal, cleaved | His6, N-terminal, cleaved
notes: recombinant human chemokine (Macrophage-Derived Chemokine), CCR4 agonist, produced in E. coli
Q: For B2, which EC50 (CCR4 [4]) is on record?
A: 2.9 ± 0.5 nM

Q: And the “CCR4 internalization (receptor endocytosis) induced by the chemokine” value (CCR4 [5])?
A: 78.0 ± 3.0%
